Reference: patent US9005677B2, “Autophagy enhancer for treatment of neurodegenerative diseases” (Macau University of Science and Technology, priority 2013, dated 2015)
“Also recorded” adds a separate entry of the source.

Assays:
[1] = system: EGFP-HDQ74 inclusions in PC12 cells; assay: Mutant huntingtin aggregates in PC12, fluorescence microscopy; type: cell-based, rat; settings: immunocytochemistry
Protocol: (§1) Quantification of mutant huntingtin aggregates in PC12, Atg7 wild type and deficient MEFs. In brief, both EGFP-HDQ74 transfected PC12, Atg7 wild-type and deficient mouse embryonic fibroblasts (MEFs) grown on coverslips in a 6-well plate were treated with indicated concentrations of Onjisaponin B. The cells were then fixed in 4% paraformaldehyde for 20 minutes at room temperature and then rinsed with PBS. Slides were mounted with FluorSave™ mounting media (Calbiochem, San Diego, Calif.) and examined by fluorescence microscopy. The number of cells with GFP-aggregates formation was examined under the Nikon ECLIPSE 80i microscope. Representative images were captured with CCD digital camera Spot RT3™ (Diagnostic Instruments, Inc., Melville, N.Y.). To quantify the clearance of mutant huntingtin, the percentage of cells with GFP-aggregates was calculated by counting the number of the cells with punctate GFP-LC3 fluorescence in GFP-positive cells. A minimum of 150 cells from 3 randomly selected fields was scored.

[2] = system: Atg7-knockout mouse embryonic fibroblasts; assay: GFP-LC3 puncta in Atg7 deficient MEFs; type: cell-based
Protocol: Quantification of autophagy GFP-LC3 Puncta in Atg7 wild type and deficient MEFs. GFP-LC3 puncta formation was quantified as described previously. In brief, both Atg7 wild-type and deficient mouse embryonic fibroblasts (MEFs) grown on coverslips in a 6-well plate were treated with indicated concentrations of Onjisaponin B. The cells were then fixed in 4% paraformaldehyde for 20 minutes at room temperature and then rinsed with PBS. Slides were mounted with FluorSave™ mounting media (Calbiochem, San Diego, Calif.) and examined by fluorescence microscopy. The number of GFP-positive cells with GFP-LC3 puncta formation was examined under the Nikon ECLIPSE 80i microscope. Representative images were captured with CCD digital camera Spot RT3™ (Diagnostic Instruments, Inc., Melville, N.Y.). To quantify for autophagy, the percentage of cells with punctate GFP-LC3 fluorescence was calculated by counting the number of the cells with punctate GFP-LC3 fluorescence in GFP-positive cells. A minimum of 150 cells from 3 randomly selected fields was scored.

[3] = system: LC3-II conversion in PC12 cells; assay: Western blot of autophagic marker protein LC3 conversion; type: cell-based
Protocol: Detection of autophagic marker protein LC3 conversion. After drug treatments with or without autophagy inhibitor ([…] E64D and pepstain A), cells were harvested and lysed in RIPA buffer (Cell Signaling Technologies Inc., Beverly, Mass.). The cell lysates were then resolved by SDS-PAGE. After electrophoresis, the proteins from SDS-PAGE were transferred to nitrocellulose membrane which was then blocked with 5% non-fat dried milk for 60 minutes. The membrane was then incubated with LC3 primary antibodies (1:1000) in TBST overnight at 4° C. After that, the membrane was further incubated with HRP-conjugated secondary antibodies for 60 minutes. Finally, protein bands were visualized by using the ECL Western Blotting Detection Reagents (Invitrogen, Paisley, Scotland, UK).

[4] = system: EGFP-HDQ74 transfected Atg7 wild-type mouse embryonic fibroblasts; assay: Mutant huntingtin aggregates and LC3 conversion in Atg7 wild-type MEFs; type: cell-based
Protocol: as §1
Detection of autophagic marker protein LC3 conversion and HTT 74 mutant aggregates. After drug treatments for Atg7 wild type and deficient MEFs, cells were harvested and lysed in RIPA buffer (Cell Signaling Technologies Inc., Beverly, Mass.). The cell lysates were then resolved by SDS-PAGE. […]

[5] = system: mutant huntingtin EGFP-HDQ74 in PC 12 cells; assay: Removal of mutant huntingtin, immunoblotting against EGFP; type: cell-based, rat; settings: 24 hours treatment
Protocol: Removal of mutant huntingtin and mutant α-synuclein. PC 12 cells were transfected transiently with EGFP-HDQ74 plasmids for 24 hours using Lipofectamine Plus LTX reagent (Invitrogen) according to the manufacturer's protocol. The transfected cells were then treated with Onjisaponin B for 24 hours. The removal of mutant huntingtin, EGFP-HDQ74, was then quantitated by immunoblotting with antibody against EGFP. To measure the clearance of α-synuclein in cellular model, the overexpression of mutant A53T α-synuclein was first induced by the addition of doxycycline (1 μg/ml) (Sigma) for 24 hours, by using the doxycycline inducible PC 12 cell line transfected with A53T α-synuclein plasmid. The expression of mutant A53T α-synuclein was then switched off by removing doxycycline from medium. Cells were then incubated with Onjisaponin B for a further 24 hours. The clearance of mutant α-synuclein was then measured by immunoblotting with antibody against myc tag.

PC-12 cells = assay: MTT cytotoxicity assay; type: cell-based, rat; settings: 0.039-100 μmol/L, 48 hours
Protocol: Cell culture and cytotoxicity assay: The test compound of Onjisaponin B was dissolved in DMSO at a final concentration of 100 mmol/L and stored at −20° C. Cytotoxicity was assessed using the 3-(4,5-dimethylthiazol-2-yl) -2,5-diphenyltetrazolium bromide assay as described previously. PC-12, 4000 cells were seeded on 96-well plates per well. After overnight pre-incubation, the cells were exposed to different concentrations of Onjisaponin B (0.039-100 μmol/L) for 2 days. Subsequently, 10 μL of MTT reagents was added to each well and incubated at 37° C. for 4 hours followed by the addition of 100 μL solubilization buffer (10% SDS in 0.01 mol/L HCl) and overnight incubation. Absorbance at 585 nm was determined from each well the next day. For cell viability assay measured by crystal violet staining, PC-12 cells were incubated in 35 mm disc followed by the addition of Onjisaponin B at the indicated concentrations for 24 hours. The cells were then incubated with crystal violet for 10 minutes followed by a ddH2O wash. […] Cell viability was quantified by dissolving the stained cells in 10% acetic acid (200 μL/well). The colorimetric reading of the solute mixture was then determined by spectrophotometer at OD 560 nm The percentage of cell viability was calculated using the following formula: Cell viability (%)=Cells number treated/Cells number DMSO control×100. […]

Question: Which “Clearance of inclusions formed by EGFP-HDQ74 in PC12 cells” value [1] does the source give for `COc1ccc(/C=C/C(=O)O[C@@H]2[C@H](O[C@@H]3O[C@@H](C)[C@H](O)[C@@H](O)[C@H]3O)[C@@H](O[C@@H]3O[C@@H](C)[C@H](O[C@@H]4OC[C@@H](O[C@@H]5O[C@H](CO)[C@H](O)[C@H](O)[C@H]5O)[C@H](O)[C@H]4O)[C@@H](O)[C@H]3O)[C@H](OC(=O)[C@]34CCC(C)(C)C[C@H]3C3=CC[C@@H]5[C@@]6(C)C[C@H](O)[C@H](O[C@@H]7O[C@H](CO)[C@@H](O)[C@H](O)[C@H]7O)[C@@](C)(C(=O)O)[C@@H]6CC[C@@]5(C)[C@]3(CO)CC4)O[C@@H]2C)cc1` [Onjisaponin B] here?
Answer: enhanced the clearance of inclusions formed by EGFP-HDQ74

Question: What about the “GFP-LC3 puncta formation in Atg7-knockout cells” value [2] of the same compound?
Answer: not in Atg7-knockout mouse embryonic fibroblasts

Question: What about the “LC3-II conversion (western blot)” value [3] of the same compound?
Answer: increase of LC3-II conversion

Question: What about the “Rate of LC3-II formation in the presence of protease inhibitors (autophagic flux)” value ([3]; with 10 µg/mL E64D and pepstain A) of the same compound?
Answer: increased the rate of LC3-II formation

Question: What about the “Clearance of EGFP-HDQ74 inclusions in autophagy-wild type cells” value [4] of the same compound?
Answer: enhanced the clearance of EGFP-HDQ74 inclusions

Question: And the “LC3II formation in wild type Atg7 cells transfected with EGFP-HDQ74” value ([4]; western blot)?
Answer: LC3II formation in wild type Atg7 cells

Question: And the “Clearance of overexpressed EGFP-tagged mutant huntingtin with 74 CAG repeats” value [5]?
Answer: enhanced the clearance

Question: What about the “Cytotoxicity in PC-12 cells (MTT assay)” value (PC-12 cells) of the same compound?
Answer: no significant cytotoxic effect; also recorded: no toxicity observed overtly
